Columns and labels:
[1] = molecular target: Dual specificity protein kinase CLK1 (Homo sapiens, UniProt P49759); assay: Selectivity interaction (Radioactive assay (Reaction Biology)) EUB0001046a CLK1
[2] = molecular target: Dual specificity protein kinase CLK2 (Homo sapiens, UniProt P49760); assay: Selectivity interaction (Radioactive assay (Reaction Biology)) EUB0001046a CLK2
[3] = molecular target: Dual specificity protein kinase CLK3 (Homo sapiens, UniProt P49761); assay: Selectivity interaction (Radioactive assay (Reaction Biology)) EUB0001046a CLK3
Chain of Dual specificity protein kinase CLK3 (P49761 whole entry): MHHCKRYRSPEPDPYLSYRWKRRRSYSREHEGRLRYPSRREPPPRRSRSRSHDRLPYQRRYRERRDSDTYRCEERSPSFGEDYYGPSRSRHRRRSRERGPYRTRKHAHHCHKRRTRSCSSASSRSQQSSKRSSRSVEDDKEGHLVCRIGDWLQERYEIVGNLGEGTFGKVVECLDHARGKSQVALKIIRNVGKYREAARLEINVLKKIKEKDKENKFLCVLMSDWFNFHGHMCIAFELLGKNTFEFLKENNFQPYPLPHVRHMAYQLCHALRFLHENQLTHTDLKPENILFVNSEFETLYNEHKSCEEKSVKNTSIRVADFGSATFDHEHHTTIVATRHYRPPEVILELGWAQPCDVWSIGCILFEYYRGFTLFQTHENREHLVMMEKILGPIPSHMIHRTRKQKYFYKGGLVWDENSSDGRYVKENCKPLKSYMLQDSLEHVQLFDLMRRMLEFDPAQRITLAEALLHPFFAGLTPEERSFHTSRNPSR

[4] = molecular target: Dual specificity protein kinase CLK4 (Homo sapiens, UniProt Q9HAZ1); assay: Selectivity interaction (Radioactive assay (Reaction Biology)) EUB0001046a CLK4
Chain of Dual specificity protein kinase CLK4 (Q9HAZ1 whole entry): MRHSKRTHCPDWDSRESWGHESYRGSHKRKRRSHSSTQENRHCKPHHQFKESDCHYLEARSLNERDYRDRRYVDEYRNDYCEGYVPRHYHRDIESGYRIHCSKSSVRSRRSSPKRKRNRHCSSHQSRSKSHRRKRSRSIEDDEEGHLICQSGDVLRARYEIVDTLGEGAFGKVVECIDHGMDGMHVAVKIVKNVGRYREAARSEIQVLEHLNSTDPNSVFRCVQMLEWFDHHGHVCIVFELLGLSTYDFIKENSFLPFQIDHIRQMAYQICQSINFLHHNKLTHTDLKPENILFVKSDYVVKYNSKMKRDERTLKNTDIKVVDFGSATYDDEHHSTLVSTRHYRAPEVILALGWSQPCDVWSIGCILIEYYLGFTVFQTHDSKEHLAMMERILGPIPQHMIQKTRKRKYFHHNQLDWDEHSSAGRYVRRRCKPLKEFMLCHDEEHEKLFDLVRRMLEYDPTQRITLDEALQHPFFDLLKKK

[5] = molecular target: Dual specificity tyrosine-phosphorylation-regulated kinase 1A (Homo sapiens, UniProt Q13627); assay: Selectivity interaction (Radioactive assay (Reaction Biology)) EUB0001046a DYRK1A
[6] = molecular target: Dual specificity tyrosine-phosphorylation-regulated kinase 1B (Homo sapiens, UniProt Q9Y463); assay: Selectivity interaction (Radioactive assay (Reaction Biology)) EUB0001046a DYRK1B
Chain of Dual specificity tyrosine-phosphorylation-regulated kinase 1B (Q9Y463 whole entry): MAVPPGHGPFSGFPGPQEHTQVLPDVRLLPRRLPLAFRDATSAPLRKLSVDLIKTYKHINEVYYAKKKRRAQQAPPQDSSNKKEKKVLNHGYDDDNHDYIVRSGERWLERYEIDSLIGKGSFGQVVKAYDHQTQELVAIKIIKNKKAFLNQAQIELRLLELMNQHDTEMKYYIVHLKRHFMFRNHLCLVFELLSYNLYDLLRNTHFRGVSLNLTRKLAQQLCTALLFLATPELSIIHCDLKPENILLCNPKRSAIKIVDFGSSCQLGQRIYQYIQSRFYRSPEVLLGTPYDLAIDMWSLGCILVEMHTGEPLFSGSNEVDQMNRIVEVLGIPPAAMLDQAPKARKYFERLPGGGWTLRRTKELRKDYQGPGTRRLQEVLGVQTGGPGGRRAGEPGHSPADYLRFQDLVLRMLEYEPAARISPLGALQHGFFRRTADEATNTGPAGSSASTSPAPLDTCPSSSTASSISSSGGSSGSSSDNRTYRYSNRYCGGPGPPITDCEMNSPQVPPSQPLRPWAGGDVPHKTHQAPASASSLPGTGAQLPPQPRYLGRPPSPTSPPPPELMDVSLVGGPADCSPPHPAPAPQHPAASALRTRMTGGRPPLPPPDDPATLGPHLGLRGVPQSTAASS

[7] = molecular target: T1, Dual specificity tyrosine-phosphorylation-regulated kinase 2 (Homo sapiens, UniProt Q92630); assay: Selectivity interaction (Radioactive assay (Reaction Biology)) EUB0001046a DYRK2
T1 sequence (Q92630 whole entry): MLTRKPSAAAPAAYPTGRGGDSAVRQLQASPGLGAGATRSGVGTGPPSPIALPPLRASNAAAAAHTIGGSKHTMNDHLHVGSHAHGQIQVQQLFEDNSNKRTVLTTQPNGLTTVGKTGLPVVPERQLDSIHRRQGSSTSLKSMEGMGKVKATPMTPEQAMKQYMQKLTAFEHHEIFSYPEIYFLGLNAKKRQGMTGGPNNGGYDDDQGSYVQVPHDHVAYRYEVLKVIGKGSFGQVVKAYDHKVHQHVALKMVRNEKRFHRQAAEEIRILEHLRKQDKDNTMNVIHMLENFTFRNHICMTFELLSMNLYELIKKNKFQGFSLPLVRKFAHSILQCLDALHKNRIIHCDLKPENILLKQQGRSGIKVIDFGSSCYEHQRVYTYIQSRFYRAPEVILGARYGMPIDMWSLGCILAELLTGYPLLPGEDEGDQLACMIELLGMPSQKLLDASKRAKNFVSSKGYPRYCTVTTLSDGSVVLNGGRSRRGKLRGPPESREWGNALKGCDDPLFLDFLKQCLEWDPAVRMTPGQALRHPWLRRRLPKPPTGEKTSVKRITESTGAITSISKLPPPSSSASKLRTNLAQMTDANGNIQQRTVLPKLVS

[8] = molecular target: T2, Dual specificity tyrosine-phosphorylation-regulated kinase 3 (Homo sapiens, UniProt O43781); assay: Selectivity interaction (Radioactive assay (Reaction Biology)) EUB0001046a DYRK3
T2 sequence (O43781 whole entry): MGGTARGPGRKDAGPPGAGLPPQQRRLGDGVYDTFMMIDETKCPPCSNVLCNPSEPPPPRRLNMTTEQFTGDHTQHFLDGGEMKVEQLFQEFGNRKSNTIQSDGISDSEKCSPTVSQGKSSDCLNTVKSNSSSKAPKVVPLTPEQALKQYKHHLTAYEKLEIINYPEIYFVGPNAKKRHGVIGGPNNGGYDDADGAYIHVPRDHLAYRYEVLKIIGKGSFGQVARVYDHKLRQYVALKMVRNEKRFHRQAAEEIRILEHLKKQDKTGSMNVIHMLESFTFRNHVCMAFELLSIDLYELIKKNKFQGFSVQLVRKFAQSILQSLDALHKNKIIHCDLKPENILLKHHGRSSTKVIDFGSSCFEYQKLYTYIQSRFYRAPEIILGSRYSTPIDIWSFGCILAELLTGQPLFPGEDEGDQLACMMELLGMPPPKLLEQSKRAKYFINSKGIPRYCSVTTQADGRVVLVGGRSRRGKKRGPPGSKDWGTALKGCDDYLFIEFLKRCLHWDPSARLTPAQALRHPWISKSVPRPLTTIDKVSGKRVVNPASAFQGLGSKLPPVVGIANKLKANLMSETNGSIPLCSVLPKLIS

SRSF protein kinase 1 [9] = molecular target: T3, SRSF protein kinase 1 (Homo sapiens, UniProt Q96SB4)
T3 sequence (Q96SB4 whole entry): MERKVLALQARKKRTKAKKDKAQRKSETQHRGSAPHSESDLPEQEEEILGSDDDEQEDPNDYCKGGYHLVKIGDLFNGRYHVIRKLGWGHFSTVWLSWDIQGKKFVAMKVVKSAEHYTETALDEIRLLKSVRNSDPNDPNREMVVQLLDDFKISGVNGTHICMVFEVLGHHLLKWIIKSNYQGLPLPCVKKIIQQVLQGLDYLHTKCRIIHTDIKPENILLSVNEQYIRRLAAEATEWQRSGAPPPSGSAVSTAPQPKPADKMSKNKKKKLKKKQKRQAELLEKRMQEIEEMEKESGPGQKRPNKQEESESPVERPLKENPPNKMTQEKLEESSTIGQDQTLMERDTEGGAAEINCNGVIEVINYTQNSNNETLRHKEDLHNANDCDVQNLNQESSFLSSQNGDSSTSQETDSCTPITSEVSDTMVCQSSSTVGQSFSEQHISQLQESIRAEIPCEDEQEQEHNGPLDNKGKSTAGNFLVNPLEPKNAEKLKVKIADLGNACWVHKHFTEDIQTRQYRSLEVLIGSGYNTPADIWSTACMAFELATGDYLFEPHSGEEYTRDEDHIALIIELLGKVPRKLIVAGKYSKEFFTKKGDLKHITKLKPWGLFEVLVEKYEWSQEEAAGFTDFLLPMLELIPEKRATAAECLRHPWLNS

SRSF protein kinase 1 [10] = molecular target: T3, SRSF protein kinase 1; remark: listed apart in the source
[11] = molecular target: SRSF protein kinase 2 (Homo sapiens) (UniProt P78362)
Chain of SRSF protein kinase 2 (Homo sapiens) (P78362 whole entry, looked up): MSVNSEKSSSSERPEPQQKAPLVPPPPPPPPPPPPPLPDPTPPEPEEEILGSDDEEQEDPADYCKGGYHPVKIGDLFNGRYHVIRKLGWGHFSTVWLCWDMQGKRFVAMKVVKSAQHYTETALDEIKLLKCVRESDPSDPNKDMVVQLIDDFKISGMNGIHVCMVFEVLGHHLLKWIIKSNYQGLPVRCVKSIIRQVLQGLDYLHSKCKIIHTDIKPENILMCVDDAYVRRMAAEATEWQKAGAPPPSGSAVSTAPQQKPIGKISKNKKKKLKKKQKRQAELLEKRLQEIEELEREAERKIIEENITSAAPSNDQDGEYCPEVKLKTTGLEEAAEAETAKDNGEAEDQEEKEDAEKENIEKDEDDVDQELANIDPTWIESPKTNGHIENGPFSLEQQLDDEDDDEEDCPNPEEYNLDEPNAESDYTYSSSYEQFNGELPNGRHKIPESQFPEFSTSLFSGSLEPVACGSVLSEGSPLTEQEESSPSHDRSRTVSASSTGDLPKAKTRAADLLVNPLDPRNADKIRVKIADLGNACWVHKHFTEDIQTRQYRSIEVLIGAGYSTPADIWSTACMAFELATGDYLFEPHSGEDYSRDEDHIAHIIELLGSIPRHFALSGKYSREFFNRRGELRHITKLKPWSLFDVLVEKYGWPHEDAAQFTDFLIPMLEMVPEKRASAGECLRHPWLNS

[12] = molecular target: T4, Mitogen-activated protein kinase 14 (Homo sapiens, UniProt Q16539); assay: Selectivity interaction (Tracer competition assays (Reaction Biology)) EUB0001201a MAPK14
T4 sequence (Q16539 whole entry): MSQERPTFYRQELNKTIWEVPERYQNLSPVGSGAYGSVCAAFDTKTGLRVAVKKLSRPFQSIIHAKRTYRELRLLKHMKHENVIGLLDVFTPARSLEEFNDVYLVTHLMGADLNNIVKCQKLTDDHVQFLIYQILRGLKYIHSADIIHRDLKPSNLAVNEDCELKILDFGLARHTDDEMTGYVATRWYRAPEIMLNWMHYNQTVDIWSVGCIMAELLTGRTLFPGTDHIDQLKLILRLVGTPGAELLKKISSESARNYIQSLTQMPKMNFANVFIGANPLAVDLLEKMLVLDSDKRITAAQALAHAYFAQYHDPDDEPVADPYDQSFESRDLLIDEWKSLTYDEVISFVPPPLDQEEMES

[13] = molecular target: T4, Mitogen-activated protein kinase 14; assay: Selectivity interaction (NanoBRET assay (using HEK293T cells)) EUB0001201a MAPK14; format: cell-based, HEK-293T

Chain of Dual specificity protein kinase CLK1 (P49759 whole entry): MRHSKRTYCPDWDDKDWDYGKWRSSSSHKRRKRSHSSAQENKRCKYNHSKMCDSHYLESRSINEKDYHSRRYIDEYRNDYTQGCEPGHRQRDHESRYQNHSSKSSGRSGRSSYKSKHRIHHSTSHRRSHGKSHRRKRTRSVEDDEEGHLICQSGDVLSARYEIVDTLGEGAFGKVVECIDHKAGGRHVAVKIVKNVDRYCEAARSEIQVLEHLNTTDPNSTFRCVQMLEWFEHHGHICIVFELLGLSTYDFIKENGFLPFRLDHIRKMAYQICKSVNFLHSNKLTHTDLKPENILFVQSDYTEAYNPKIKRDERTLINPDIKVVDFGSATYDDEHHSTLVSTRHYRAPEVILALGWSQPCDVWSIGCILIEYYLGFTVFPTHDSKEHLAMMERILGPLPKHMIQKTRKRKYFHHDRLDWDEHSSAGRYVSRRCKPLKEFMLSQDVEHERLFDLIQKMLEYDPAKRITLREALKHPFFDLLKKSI
Chain of Dual specificity protein kinase CLK2 (P49760 whole entry): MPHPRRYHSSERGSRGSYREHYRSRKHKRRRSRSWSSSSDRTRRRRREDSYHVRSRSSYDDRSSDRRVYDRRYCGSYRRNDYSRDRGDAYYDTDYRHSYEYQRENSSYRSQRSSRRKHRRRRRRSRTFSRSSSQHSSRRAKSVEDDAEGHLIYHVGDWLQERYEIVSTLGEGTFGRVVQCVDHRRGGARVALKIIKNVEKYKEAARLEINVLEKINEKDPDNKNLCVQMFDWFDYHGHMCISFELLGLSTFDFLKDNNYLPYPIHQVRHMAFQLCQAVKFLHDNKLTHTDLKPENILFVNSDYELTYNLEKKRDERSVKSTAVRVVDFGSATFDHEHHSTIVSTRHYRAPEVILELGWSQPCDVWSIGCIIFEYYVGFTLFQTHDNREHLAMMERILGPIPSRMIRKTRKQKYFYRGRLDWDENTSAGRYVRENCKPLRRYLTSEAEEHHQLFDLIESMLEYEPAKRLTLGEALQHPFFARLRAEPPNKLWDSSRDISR

Row | IC50 [1] [µM] | IC50 [2] [µM] | IC50 [3] [µM] | IC50 [4] [µM] | IC50 [5] [µM] | IC50 [6] [µM] | IC50 [7] [µM] | IC50 [8] [µM] | IC50 (SRSF protein kinase 1 [9]) [µM] | dTM (SRSF protein kinase 1 [10]) [K] | dTM [11] [K] | IC50 [12] [µM] | IC50 [13] [µM] | Structure (SMILES)
1 | > 10 | > 10 | > 10 | > 10 | > 10 | > 10 | > 10 | > 10 | > 50 | 0.5 | 0.3 |  |  | CN(c1ncccc1CNc1ccnc(-c2cc3cc(Cl)ccc3[nH]2)n1)S(C)(=O)=O
2 |  |  |  |  |  |  |  |  |  |  |  | > 3 | 9.9 | CCc1ccc(-c2ncn(CC3(F)CCN(C)CC3)c2-c2ccnc3[nH]ccc23)nc1

— ChEMBL document CHEMBL5465560, “Selectivity Literature for EUbOPEN Chemogenomic Library” (2024)
